Active and inactive are the calls of the source.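 The calls were made as follows: active = growth-inhibition EC50 no more than tenfold above the top tested dose; inconclusive = flat fit between 30% and 70% inhibition, or unreliable fit; inactive = EC50 more than tenfold above the top tested dose.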
The molecules below were run on E. coli NEB5alpha growth, BacTiter-Glo luminescence, 4 h (assay: antibacterial activity against E. coli NEB5alpha – luminescence, counter-screen for MEX-5/POS-1 RNA-binding inhibitor project, dose response (AID 1959);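 also: pUC19-transformed ampicillin-resistant cells grown in LB with ampicillin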).

| Compound | EC50 |
| --- | --- |
| CCOC(=O)C1=C2NC(=O)c3ccccc3N2C(=O)C1 | > 11 µM (inactive) |
| Cc1ncc(CO)c(/C=N/NC(=O)c2cc(Br)ccc2O)c1O | > 11 µM (inactive) |
| O=c1[nH]c(=O)n(CCc2ccccc2)c(O)c1C=NCCCn1ccnc1 | > 11 µM (inactive) |
| CC(=O)c1c(C(C)=O)c(C)n(-c2ccc(C(=O)O)cc2)c1C | > 11 µM (inactive) |
| O=c1cc(-c2ccc(O)c(O)c2)oc2cc(O)cc(O)c12 | > 11 µM (inactive) |
| O=C(O)c1cccc(-n2cccc2C=C2C(=O)c3ccccc3C2=O)c1 | > 11 µM (inactive) |
| Cc1c(N=Cc2c(O)n(C)c(=O)c3ccccc23)c(=O)n(-c2ccccc2)n1C | > 11 µM (inactive) |
| Cc1cc(C)cc(N2C(=O)NC(=O)/C(=C\c3cccn3-c3ccc(Cl)cc3)C2=O)c1 | > 11 µM (inactive) |
| Cc1cc(C(=O)N/N=C/c2cc(Cl)cc([N+](=O)[O-])c2O)n[nH]1 | > 11 µM (inactive) |
| CCC1(c2ccccc2)NC(=O)N(CC(=O)NCc2ccc(F)cc2)C1=O (stereo not given) | > 11 µM (inactive) |
| c1ccc(-c2nc(-c3ccccn3)nc(-c3ccccn3)n2)nc1 | > 11 µM (inactive) |
| O=C(O)c1ccc2c3c(ncnc13)-c1ccccc1C2=O | > 11 µM (inactive) |
| CCN(CC)C(=O)CNc1ccc(C(F)(F)F)cc1[N+](=O)[O-] | > 11 µM (inactive) |
| Cc1oc(/N=C/c2ccc(O)cc2O)c(C#N)c1C | > 11 µM (inactive) |
| COCCN1C(=O)/C(=C/c2c(OC)cc(OC)cc2OC)C(=O)N(c2ccccc2)C1=O | > 11 µM (inactive) |
| CCCCn1c(=O)[nH]c(=O)c2c1nc(-c1ccc(-c3ccccc3Br)o1)n2CCOC | > 11 µM (inactive) |
| Cc1ccc(CNC(=O)/C(C#N)=C\c2ccc(N(C)C)cc2)cc1 | > 11 µM (inactive) |
| C=CCNC(=S)N1CCN(c2cccc(C(F)(F)F)c2)CC1 | > 11 µM (inactive) |
| COC(=O)CCC(=O)OC1(C)C(=O)C2=COC(c3ccc(OC)cc3)=CC2=C(Br)C1=O (stereo not given) | > 11 µM (inactive) |
| CCCCC1=CC2=CC(=O)C(C)(OC(=O)CCC(=O)OC)C(=O)C2=CO1 (stereo not given) | > 11 µM (inactive) |
| O=c1oc2ccc(Cl)cc2nc1/C=C(\O)c1ccco1 | > 11 µM (inactive) |
| Cc1cccc(NC(=O)/C(C#N)=C\c2cc(C)n(-c3ccc(C(=O)O)cc3)c2C)c1 | > 11 µM (inactive) |
| CCn1c(/C=C/c2ccc([N+](=O)[O-])o2)nc2ccccc2c1=O | > 11 µM (inactive) |

| Compound | EC50 |
| --- | --- |
| O=C(O)C(=O)/C(=C\c1cccc2ccccc12)c1ccc2ccccc2n1 | > 11 µM (inactive) |
| Fc1ccc(CNc2nc(-c3ccccc3)nc3ccccc23)cc1 | > 11 µM (inactive) |
| CC(C)c1ccc(C2C(C#N)=C(N)N3C(=C2C#N)Sc2ccccc23)cc1 (stereo not given) | > 11 µM (inactive) |
| CCCCOc1cccc(C2C(C(=O)c3ccc(C)o3)=C(O)C(=O)N2c2nnc(C)s2)c1 (stereo not given) | > 11 µM (inactive) |
| CCc1cc[n+](-c2nc([O-])sc2C=O)cc1 | > 11 µM (inactive) |
| COc1ccc2c(c1)C1C=CCC1C(c1cc3c(cc1Br)OCO3)N2 (stereo not given) | > 11 µM (inactive) |
| N#CC1=C(N)OC2=C(C(=O)CCC2)C1c1ccc(OC(=O)N2CCOCC2)cc1 (stereo not given) | > 11 µM (inactive) |
| CCOc1ccc(S(=O)(=O)Nc2cc(SCC(=O)O)c(O)c3ccccc23)cc1 | > 11 µM (inactive) |
| CC(C)Cc1nn2c(N)c(/C=C3\C=Nc4ccccc43)c(=O)nc2s1 | > 11 µM (inactive) |
| CCN(CC)c1ccc(N=Cc2c(O)n(-c3ccc(OC)cc3)c(=O)[nH]c2=O)cc1 | > 11 µM (inactive) |
| Cc1nn2c(N3CCOCC3)c3c(nc2c1-c1ccccc1)CCCC3 | > 11 µM (inactive) |
| Cc1ccccc1NC(=O)/C(C#N)=C/c1ccc(-c2ccc(Cl)c(C(=O)O)c2)o1 | > 11 µM (inactive) |
| N#CC(C#N)=Cc1ccc(-c2ccc(S(=O)(=O)N=C(N)N)cc2)o1 | > 11 µM (inactive) |
| O=C(Cc1ccccc1)Nc1ccc(N2CCOCC2)cc1N1CCOCC1 | > 11 µM (inactive) |
| CN1CCN(C2=C(Cl)C(=O)C(c3cnc(N4CCCCC4)s3)=C(Cl)C2=O)CC1 | > 11 µM (inactive) |
| NC(N)=NS(=O)(=O)c1ccc(NC(=S)NC(=O)/C=C/c2cccs2)cc1 | > 11 µM (inactive) |
| COc1cc(NC(=O)CSc2nc3ncnc(N)c3[nH]2)c(C(=O)O)cc1OC | > 11 µM (inactive) |
| COc1ccc(-c2onc3ccc(C(C)=O)cc23)cc1 | > 11 µM (inactive) |
| COC(=O)C1=COC(C)C2CN3CCc4c([nH]c5cc(OC)c(OC)cc45)C3CC12 (stereo not given) | > 11 µM (inactive) |
| Brc1ccc(C2=CC(c3ccco3)n3ncnc3N2)cc1 (stereo not given) | > 11 µM (inactive) |
| CCCn1nc(C(=O)Nc2ccc(S(=O)(=O)Nc3nccs3)cc2)c2ccccc2c1=O | > 11 µM (inactive) |
| C=CCc1cccc(/C=N/n2cnnc2)c1O | > 11 µM (inactive) |

Reference: PubChem BioAssay AID1959 (Broad Institute, 2009)
